Legend:
H1975 lung cancer cells = experiment: MTT assay, growth of H1975 lung cancer cells; assay type: cell-based; conditions: Homo sapiens, NCI-H1975; H1975 lung cancer cell line; MTT; Table 3; read-out: IC50 H1975
[1] = test system: MDA-MB231 breast cancer cells; experiment: MTT assay, growth of MDA-MB231 breast cancer cells; assay type: cell-based; conditions: Homo sapiens, MDA-MB-231, MDA-MB231 triple-negative breast cancer cell line, Table 3
Experimental: The inhibitory effect of the exemplary compounds against MDA-MB231 breast cancer cell and H1975 lung cancer cell was evaluated. The cytotoxic activity of test compounds was examined by performing a MTT assay.

| IC50 (H1975 lung cancer cells) [µM] | IC50 [1] [µM] | melting point | Compound |
| --- | --- | --- | --- |
| 25.1 ± 0.4 | 16.9 ± 11.5 | 247 to 249 °C | CCOc1ccc(-c2nc(C#N)c3nc(OC(=O)Oc4ccccc4)n(-c4ccccc4OC)c3n2)cc1 [Compound 17d, 6-Cyano-2-(4-ethoxyphenyl)-9-(2-methoxyphenyl)purin-8-yl phenyl carbonate] |
| 3.1 | 3.9 | 209 to 211 °C | CCOc1ccc(-c2nc(C(=N)NOC(=O)Oc3ccccc3)c3[nH]c(=O)n(-c4ccccc4OC)c3n2)cc1 [Compound 22b, 2-(4-Ethoxyphenyl)-9-(2-methoxyphenyl)-8-oxopurine-6-[N-(phenoxycarbonyl)oxy]carboximidamide] |
| 43.6 | 91 | 320 °C (dec.) | CCOc1ccc(-c2nc(C(=O)O)c3nc(S)n(-c4ccccc4)c3n2)cc1 [Compound 29a, 2-(4-Ethoxyphenyl)-8-mercapto-9-phenylpurine-6-carboxylic acid] |
| 30 | 87 | 229 to 231 °C | CCOc1ccc(-c2nc(C(=N)NO)c3c(n2)n(-c2ccccc2OC)c(=O)n3C)cc1 [Compound 21a, 2-(4-Ethoxyphenyl)-9-(2-methoxyphenyl)-7-methyl-8-oxopurine-6-(N-hydroxy)carboximidamide] |
| 13 | 22 | 278 to 280 °C | CCOc1ccc(-c2nc(C#N)c3nc(OC(=O)OC(C)(C)C)n(-c4ccccc4OC)c3n2)cc1 [Compound 17b, Tert-butyl 6-cyano-2-(4-ethoxyphenyl)-9-(2-methoxyphenyl)purin-8-yl carbonate] |
| 42 | 56 |  | CCOc1ccc(-c2nc(C(=N)NOC)c3c(n2)n(-c2ccccc2OC)c(=O)n3C)cc1 [Compound 21b, 2-(4-Ethoxyphenyl)-9-(2-methoxyphenyl)-7-methyl-8-oxopurine-6-(N-methoxy)carboximidamide] |
| 6.2 | 2.6 | 293.2 to 294.8 °C | CCOc1ccc(-c2nc(C#N)c3[nH]c(=O)n(-c4ccc([N+](=O)[O-])cc4)c3n2)cc1 [Compound 12d, 2-(4-Ethoxyphenyl)-9-(4-nitrophenyl)-8-oxopurine-6-carbonitrile] |
| 79 | 11.6 | 375 to 377 °C | CCCCNC(=N)c1nc(-c2ccc(OCC)cc2)nc2c1[nH]c(=O)n2-c1ccccc1OC [Compound 13a, 2-(4-Ethoxyphenyl)-9-(2-methoxyphenyl)-8-oxopurine-6-(N-butyl)carboximidamide] |
| 9.8 | 3.9 | 311.1 to 312.2 °C | CCOc1ccc(-c2nc(C#N)c3[nH]c(=O)n(-c4ccc(C(=O)OC)cc4)c3n2)cc1 [Compound 12b, 2-(4-Ethoxyphenyl)-9-(4-methoxycarbonylphenyl)-8-oxopurine-6-carbonitrile] |
| 6.9 | 47.2 | 279.6 to 281 °C | CCOc1ccc(-c2nc(C(=O)NN(C)C)c3[nH]c(=O)n(-c4ccccc4OC)c3n2)cc1 [Compound 20b, 2-(4-Ethoxyphenyl)-9-(2-methoxyphenyl)-8-oxopurine-6-(N′,N′-dimethyl)carbohydrazide] |
| 3.1 | 3.9 | 246 to 248 °C | CCOc1ccc(-c2nc(C(=N)NOC(=O)OCc3ccccc3)c3[nH]c(=O)n(-c4ccccc4OC)c3n2)cc1 [Compound 22a, 2-(4-Ethoxyphenyl)-9-(2-methoxyphenyl)-8-oxopurine-6-[N-(benzyloxycarbonyl)oxy]carboximidamide] |
| 7 | 26 | 307.6 to 309 °C | CCOc1ccc(-c2nc(C(N)=O)c3[nH]c(=O)n(-c4ccc([N+](=O)[O-])cc4)c3n2)cc1 [Compound 5k, 2-(4-Ethoxyphenyl)-9-(4-nitrophenyl)-8-oxopurine-6-carboxamide] |
| 51.1 | 48.1 | 83 to 85 °C | C=CCn1c(=O)n(-c2ccccc2OC)c2nc(-c3ccc(OCC)cc3)nc(C(=N)NOC(=O)Oc3ccccc3)c21 [Compound 23a, 7-Allyl-2-(4-ethoxyphenyl)-9-(2-methoxyphenyl)-8-oxopurine-6-[N-(phenoxycarbonyl)oxy]carboximidamide] |
| 4.1 | 3.5 | 296.1 to 297.8 °C | CCOc1ccc(-c2nc(C#N)c3[nH]c(=O)n(-c4cccc([N+](=O)[O-])c4)c3n2)cc1 [Compound 12e, 2-(4-Ethoxyphenyl)-9-(3-nitrophenyl)-8-oxopurine-6-carbonitrile] |
| 60.9 | 65.3 | 273.7 to 274.5 °C | CCOc1ccc(-c2nc(C(=O)NN)c3[nH]c(=O)n(-c4ccccc4OC)c3n2)cc1 [Compound 20a, 2-(4-Ethoxyphenyl)-9-(2-methoxyphenyl)-8-oxopurine-6-carbohydrazide] |
| 17 | 64 | 291 to 293 °C | CCOc1ccc(-c2nc(-c3noc(C)n3)c3[nH]c(=O)n(-c4ccccc4OC)c3n2)cc1 [Compound 24a, 2-(4-Ethoxyphenyl)-9-(2-methoxyphenyl)-6-(5-methyl-1,2,4-oxadiazol-3-yl)purin-8-one] |
| 0.7 | 1.6 | 215 to 217 °C | CCOc1ccc(-c2nc(C#N)c3nc(Cl)n(-c4ccccc4OC)c3n2)cc1 [Compound 31a, 8-Chloro-2-(4-ethoxyphenyl)-9-(2-methoxyphenyl)purine-6-carbonitrile] |
| 14.7 | 11.9 | 210 to 212 °C | CCOc1ccc(-c2nc(C#N)c3nc(N(C(C)=O)C(C)=O)n(-c4ccccc4OC)c3n2)cc1 [Compound 35a, N-Acetyl-N-[6-cyano-2-(4-ethoxyphenyl)-9-(2-methoxyphenyl)purin-8-yl]acetamide] |
| 0.3 | 2.8 | 260.5 to 261.6 °C | CCOc1ccc(-c2nc(C(=O)NOC)c3[nH]c(=O)n(-c4ccccc4OC)c3n2)cc1 [Compound 19b, 2-(4-Ethoxyphenyl)-9-(2-methoxyphenyl)-8-oxopurine-6-(N-methoxy)carb oxamide] |
| 34 | 48.6 | 228 to 230 °C | CCOc1ccc(-c2nc(C#N)c3nc(OC(=O)OCc4ccccc4)n(-c4ccccc4OC)c3n2)cc1 [Compound 17c, Benzyl 6-cyano-2-(4-ethoxyphenyl)-9-(2-methoxyphenyl)purin-8-yl carbonate] |
| 11.9 | 15.4 | 245 to 247 °C | CCOc1ccc(-c2nc(C(=N)NO)c3nc(N)n(-c4ccccc4OC)c3n2)cc1 [Compound 36a, 8-Amino-2-(4-ethoxyphenyl)-9-(2-methoxyphenyl)purine-6-(N-hydroxy)carboximidamide] |

From patent US10765681B2 (Academia Sinica, priority 2016, dated 2020)
